Experimental data: article PMC7441537 (Journal of medicinal chemistry, 2019)
In brackets after ≈: the same amount, converted by molar mass. Marks after values point to notes of the source that are not given here.

What was measured:
WT HIV-1 (NL4-3) = assay: Anti-HIV-1 activity against wild-type NL4-3 in TZM-bl cell lines
in vitro [1] = conditions: human
HIV-1 L100I = assay type: cell-based; conditions: MT-4 cells; CC50/EC50
HIV-1 K103N = assay type: cell-based; conditions: MT-4 cells; CC50/EC50
HIV-1 Y181C = assay type: cell-based; conditions: MT-4 cells; CC50/EC50
HIV-1 Y188L = assay type: cell-based; conditions: MT-4 cells; CC50/EC50
HIV-1 E138K = assay type: cell-based; conditions: MT-4 cells; CC50/EC50
HIV-1 F227L+V106A = assay type: cell-based; conditions: MT-4 cells; CC50/EC50
Kunming mice = assay: Acute; assay type: in vivo; conditions: 800 mg/kg, 2 weeks, vs control group
[2] = system: HIV-1 strains carrying single NNRTI-resistant mutations; assay type: cell-based; conditions: EC50 mutant/EC50 WT
WT HIV-1 (IIIB) = conditions: MT-4 cells
[3] = system: NNRTI-resistant strain K103N+Y181C (RES056); conditions: MT-4 cells
in vitro [4] = conditions: human; remark: listed apart in the source
[5] = Aqueous solubility measured by HPLC; assay type: physicochemical; conditions: aqueous solution, pH 2
[6] = cited from earlier work
RES056 (K103N+Y181C) = conditions: read-out: EC50 RES056 (previously reported); cited from earlier work
mice = assay: Subacute toxicity with HE staining of organs; conditions: 50 mg/kg, heart, liver, spleen, lungs, kidneys

Structure (SMILES): Cc1cc(C#N)cc(C)c1Oc1nc(NC2CCCN(Cc3ccc(S(N)(=O)=O)cc3)CC2)nc2ccsc12 (stereo not drawn) [8a1, 4-((4-((4-(4-Cyano-2,6-dimethylphenoxy)thieno[3,2-d]-pyrimidin-2-yl)amino)azepan-1-yl)methyl)benzenesulfonamide]
- SI (CC50/EC50) NL4-3 (WT HIV-1 (NL4-3)): >100

Structure (SMILES): Cc1cc(C#N)cc(C)c1Oc1nc(NC2CCCN(Cc3ccc(C(N)=O)cc3)CC2)nc2ccsc12 (stereo not drawn) [8a2, 4-((4-((4-(4-Cyano-2,6-dimethylphenoxy)thieno[3,2-d]-pyrimidin-2-yl)amino)azepan-1-yl)methyl)benzamide]
- SI (CC50/EC50) NL4-3 (WT HIV-1 (NL4-3)): X1^d

Structure (SMILES): Cc1cc(C#N)cc(C)c1Oc1nc(NC2CC3CCC(C2)N3Cc2ccc(S(N)(=O)=O)cc2)nc2ccsc12 (stereo not drawn) [8b1, 4-((3-((4-(4-Cyano-2,6-dimethylphenoxy)thieno[3,2-d]-pyrimidin-2-yl)amino)-8-azabicyclo[3.2.1]octan-8-yl)methyl)benzenesulfonamide]
- SI (CC50/EC50) NL4-3 (WT HIV-1 (NL4-3)): X1^d

Structure (SMILES): Cc1cc(C#N)cc(C)c1Oc1nc(NC2CC3CCC(C2)N3Cc2ccc(C(N)=O)cc2)nc2ccsc12 (stereo not drawn) [8b2, 4-((3-((4-(4-Cyano-2,6-dimethylphenoxy)thieno[3,2-d]-pyrimidin-2-yl)amino)-8-azabicyclo[3.2.1]octan-8-yl)methyl)benzamide]
- SI (CC50/EC50) NL4-3 (WT HIV-1 (NL4-3)): X1^d

Structure (SMILES): Cc1cc(C#N)cc(C)c1Oc1nc(NC2CC3CCC(C2)N3Cc2cccc(C(N)=O)c2)nc2ccsc12 (stereo not drawn) [8b3, 3-((3-((4-(4-Cyano-2,6-dimethylphenoxy)thieno[3,2-d]-pyrimidin-2-yl)amino)-8-azabicyclo[3.2.1]octan-8-yl)methyl)benzamide]
- SI (CC50/EC50) NL4-3 (WT HIV-1 (NL4-3)): X1^d

Structure (SMILES): Cc1cc(C#N)cc(C)c1Oc1nc(NC2CC3CCC(C2)N3Cc2ccc(S(C)(=O)=O)cc2)nc2ccsc12 (stereo not drawn) [8b4, 3,5-Dimethyl-4-((2-((8-(4-(methylsulfonyl)benzyl)-8-azabicyclo[3.2.1]octan-3-yl)amino)thieno[3,2-d]pyrimidin-4-yl)oxy)benzonitrile]
- SI (CC50/EC50) NL4-3 (WT HIV-1 (NL4-3)): X1^d

Structure (SMILES): Cc1cc(C#N)cc(C)c1Oc1nc(NC2CC3CCC(C2)N3Cc2ccncc2)nc2ccsc12 (stereo not drawn) [8b5, 3,5-Dimethyl-4-((2-((8-(pyridin-4-ylmethyl)-8-azabicyclo-[3.2.1]octan-3-yl)amino)thieno[3,2-d]pyrimidin-4-yl)oxy)benzonitrile]
- SI (CC50/EC50) NL4-3 (WT HIV-1 (NL4-3)): X1^d

Structure (SMILES): Cc1cc(C#N)cc(C)c1Oc1nc(N[C@@H]2CCN(Cc3ccc(C(N)=O)cc3)C2)nc2ccsc12 [8c2, (R)-4-((3-((4-(4-Cyano-2,6-dimethylphenoxy)thieno[3,2-d]-pyrimidin-2-yl)amino)pyrrolidin-1-yl)methyl)benzamide]
- CC50 (in vitro [1]): > 250 nM

Structure (SMILES): Cc1cc(C#N)cc(C)c1Oc1nc(N[C@@H]2CCN(Cc3cccc(C(N)=O)c3)C2)nc2ccsc12 [8c3, (R)-3-((3-((4-(4-Cyano-2,6-dimethylphenoxy)thieno[3,2-d]-pyrimidin-2-yl)amino)pyrrolidin-1-yl)methyl)benzamide]
- CC50 (in vitro [1]): > 250 nM

Structure (SMILES): Cc1cc(C#N)cc(C)c1Oc1nc(N[C@@H]2CCN(Cc3ccc(S(C)(=O)=O)cc3)C2)nc2ccsc12 [8c4, (R)-3,5-Dimethyl-4-((2-((1-(4-(methylsulfonyl)benzyl)pyrrolidin-3-yl)amino)thieno[3,2-d]pyrimidin-4-yl)oxy)benzonitrile]
- CC50 (in vitro [1]): > 234 nM

Structure (SMILES): Cc1cc(C#N)cc(C)c1Oc1nc(N[C@H]2CCN(Cc3ccc(S(N)(=O)=O)cc3)C2)nc2ccsc12 [8d1, (S)-4-((3-((4-(4-Cyano-2,6-dimethylphenoxy)thieno[3,2-d]-pyrimidin-2-yl)amino)pyrrolidin-1-yl)methyl)benzenesulfonamide]
- CC50 (in vitro [1]): > 233 nM

Structure (SMILES): Cc1cc(C#N)cc(C)c1Oc1nc(N[C@H]2CCN(Cc3cccc(C(N)=O)c3)C2)nc2ccsc12 [8d3, (S)-3-((3-((4-(4-Cyano-2,6-dimethylphenoxy)thieno[3,2-d]-pyrimidin-2-yl)amino)pyrrolidin-1-yl)methyl)benzamide]
- SI (CC50/EC50) NL4-3 (WT HIV-1 (NL4-3)): X1^d

Structure (SMILES): Cc1cc(C#N)cc(C)c1Oc1nc(N[C@H]2CCN(Cc3ccncc3)C2)nc2ccsc12 [8d5, (S)-3,5-Dimethyl-4-((2-((1-(pyridin-4-ylmethyl)pyrrolidin-3-yl)amino)thieno[3,2-d]pyrimidin-4-yl)oxy)benzonitrile]
- CC50 (in vitro [1]): > 273 nM

Structure (SMILES): Cc1cc(C#N)cc(C)c1Oc1nc(NC2CCN(Cc3ccc(C(N)=O)cc3)CC2)nc2c1COC2 [13c2, 4-((4-((4-(4-Cyano-2,6-dimethylphenoxy)-5,7-dihydrofuro-[3,4-d]pyrimidin-2-yl)amino)piperidin-1-yl)methyl)benzamide]
- SI L100I (HIV-1 L100I): > 104167
- SI K103N (HIV-1 K103N): > 277778
- SI Y181C (HIV-1 Y181C): > 56818
- SI Y188L (HIV-1 Y188L): > 29762
- SI E138K (HIV-1 E138K): > 35714
- SI F227L+V106A (HIV-1 F227L+V106A): > 13158
- behavior, acute toxicity (Kunming mice): no significant behavior abnormalities
- resistance FC values range for single mutant strains [2]: 0.6–5.3
- SI IIIB (CC50/EC50) (WT HIV-1 (IIIB)): >156250
- SI RES056 (CC50/EC50) [3]: >6039

Structure (SMILES): Cc1cc(C#N)cc(C)c1Oc1nc(NC2CCN(Cc3ccc(S(N)(=O)=O)cc3)CC2)nc2c1CCC2 [13d1, 4-((4-((4-(4-Cyano-2,6-dimethylphenoxy)-6,7-dihydro-5H-cyclopenta[d]pyrimidin-2-yl)amino)piperidin-1-yl)methyl)benzenesulfonamide]
- SI L100I (HIV-1 L100I): > 39683
- SI K103N (HIV-1 K103N): > 21186
- SI Y181C (HIV-1 Y181C): > 16447
- SI Y188L (HIV-1 Y188L): > 16667
- SI E138K (HIV-1 E138K): > 5543
- SI F227L+V106A (HIV-1 F227L+V106A): > 6579
- SI IIIB (CC50/EC50) (WT HIV-1 (IIIB)): >208333
- SI RES056 (CC50/EC50) [3]: >9091

Structure (SMILES): Cc1cc(C#N)cc(C)c1Oc1nc(NC2CCN(Cc3ccc(S(N)(=O)=O)cc3)CC2)nc2c1SCCC2 [13f1, 4-((4-((4-(4-Cyano-2,6-dimethylphenoxy)-7,8-dihydro-6H-thiopyrano[3,2-d]pyrimidin-2-yl)amino)piperidin-1-yl)methyl)benzenesulfonamide]
- SI L100I (HIV-1 L100I): ≥ 11488
- SI K103N (HIV-1 K103N): ≥ 28500
- SI Y181C (HIV-1 Y181C): ≥ 14250
- SI Y188L (HIV-1 Y188L): ≥ 18525
- SI E138K (HIV-1 E138K): ≥ 17435
- SI F227L+V106A (HIV-1 F227L+V106A): ≥ 6645
- SI IIIB (CC50/EC50) (WT HIV-1 (IIIB)): ≥54889
- SI RES056 (CC50/EC50) [3]: ≥3650

Structure (SMILES): Cc1cc(C#N)cc(C)c1Oc1nc(NC2CCN(Cc3ccc(S(C)(=O)=O)cc3)CC2)nc2c1SCCC2 [13f3, 3,5-Dimethyl-4-((2-((1-(4-(methylsulfonyl)benzyl)piperidin-4-yl)amino)-7,8-dihydro-6H-thiopyrano[3,2-d]pyrimidin-4-yl)oxy)benzonitrile]
- SI IIIB (CC50/EC50) (WT HIV-1 (IIIB)): ≥872
- SI RES056 (CC50/EC50) [3]: ≥34.6

Structure (SMILES): Cc1cc(C#N)cc(C)c1Oc1nc(NC2CCN(Cc3cccc(C(N)=O)c3)CC2)nc2c1SCCC2 [13f5, 3-((4-((4-(4-Cyano-2,6-dimethylphenoxy)-7,8-dihydro-6H-thiopyrano[3,2-d]pyrimidin-2-yl)amino)piperidin-1-yl)methyl)benzamide]
- CC50 (in vitro [4]): > 4590 nM

Structure (SMILES): Cc1cc(C#N)cc(C)c1Oc1nc(Nc2ccc(C#N)cc2)nc(N)c1Br [ETV, etravirine]
- solubility [5]: 127 µg/mL (≈ 292 µM)
- aqueous solubility (previously reported) [6]: less than 1 μg/mL
- EC50 (RES056 (K103N+Y181C)): 17 nM
- organ toxicity by HE staining (mice): alveolar interstitial thickening and alveolar hemorrhage (the blue arrow) in the lung and proximal convoluted tubule edema (the red circle) in the kidney

Structure (SMILES): Cc1cc(C#N)cc(C)c1Oc1nc(NC2CCN(Cc3ccc(S(N)(=O)=O)cc3)CC2)nc2ccsc12 [compound 3]
- aqueous solubility (previously reported) [6]: less than 1 μg/mL
- EC50 (RES056 (K103N+Y181C)): 30.6 nM
